Source: article PMC8646019, “Azvudine is a thymus-homing anti-SARS-CoV-2 drug effective in treating COVID-19 patients” (Signal Transduction and Targeted Therapy, 2021)

How the values were obtained:
[1] = test system: viral replication; conditions: FNC compound itself, not phosphorylated; cited from earlier work
[2] = test system: SARS-CoV-2; test: Multi-color immunofluorescence staining and tissue cytometry (Tissue FAXS) of infected rhesus macaque tissues; format: in vivo, rhesus macaques
Text: To further verify the antiviral effect of FNC in the thymus, viral S-protein in the thymus was detected with immune staining. […] Tissue ACE2 was stained red, and viral S-protein was stained green. More green signals were detected in the thymus of the untreated monkey than in the FNC-treated one. Viral S-protein was quantitatively measured in the thymus with the Tissue FAXS platform and Tissue Quest software (Tissue Gnostics).[10],[26]–[30] […] The results of all eight monkeys are shown in Supplementary Fig. 10. […] Further evaluation of thymus cells undergoing programmed death was done with TUNEL staining, followed by quantitation with Tissue FAXS platform and Tissue Quest software (Tissue Gnostics, described in Methods). As shown in Supplementary Fig. 11, the number of apoptotic thymus cells from the untreated virus (+) monkeys was much higher than that from the FNC-treated ones.
Fig. 5 FNC-protected thymus from the damage by SARS-CoV-2 infection. By the end of the experiment, the RM monkeys have practiced euthanasia, and the thymus samples were collected. a The representative images of the multi-color immunofluorescent staining were for ACE2 (red) and S protein (green) in the thymus of the RM monkeys that were inoculated with SARS-CoV-2 and treated or untreated with FNC. The regions of interest (ROI) are boxed in white, and their magnified photos are shown in the middle, with a decomposition diagram on the right. […] The regions of interest (ROI) are boxed in white, and their magnified photos are shown below. Data are presented as mean ± SEM (n = 4), *p < 0.05, FNC-treated group vs. untreated group, by Mann–Whitney U test TEXT PRINTED IN THE PICTURE: (b) FNC: ACE2 Mean Intensity / ACE2 Area (um2): 26.43%; S-protein Mean Intensity / S protein Area (um2): 9.83% DOUBTS OF THE COPYIST ABOUT THIS PICTURE: Panel b prints no group label. […] They are left out because an untreated control is not a substance. / The percentages in panel b have no printed measure. The axis titles of each plot were used as the measure.
Tyramide Signal Amplification (TSA)^3 method was used for single staining of IL-4, IL-10, IL13, RORγt and tunnel; double staining of CD3 and CD20, ACE2 and S-protein; as well as triple staining of CD3, CD4 and CD8; ACE2, S-protein and N-protein. In brief, for each marker, the samples were treated with rabbit primary antibody and then incubated with HRP-conjugated goat anti-rabbit secondary antibody. After washing, slides were incubated with fluorescent reagent then heated with microwave oven to remove the combined antibodies. The antibodies were in Table S5.
As described by Kaneko and colleagues,^4 microscopy-based multi color tissue cytometry was applied for quantitative analysis. In brief, images of the tissue specimens were acquired through the Tissue FAXS platform (Tissue Gnostics).^5,6 The area of the detected tissue was acquired as a digital gray scale image in four channels with filter settings for FITC, Cy3, Cy5 and DAPI. Cells of each phenotype were identified and quantitated, relative to the positive controls.

[3] = FNC-treated monkeys, n = 4, Tissue FAXS

For `[N-]=[N+]=N[C@]1(CO)O[C@@H](n2ccc(N)nc2=O)[C@@H](F)[C@@H]1O` [FNC, 2′-deoxy-2′-β-fluoro-4′-azidocytidine], the “inhibiting viral replication in vitro” value [1] is given as “almost inactive”, the “viral S- and N-protein signal in the lung (immune staining)” value ([2]; FNC-treated monkeys vs untreated) is given as “noticeably reduced” and the “S-protein-positive cells in thymus, proportion” value [2, 3] is given as 8.36 ± 4.84%. For the same compound, the “absolute numbers of ACE2+ cells in thymus” value [2, 3] was 38,929 ± 19,470 cells, the “number of S-protein-positive cells in thymus” value [2, 3] was 8941 ± 5436 cells and the “relative proportion of ACE2+ cells in thymus” value [2, 3] was 35.96 ± 16.90%.
